From patent US20230241014A1, “MEK-INHIBITORS FOR THE TREATMENT OR PREVENTION OF CORONAVIRUS INFECTIONS AND/OR COVID-19 CYTOKINE STORM” (priority 2020, published 2023) come the findings set out here.

The test system of the experiment is SARS-CoV-2 SA variant B.1351. As to the kind of experiment: Virus yield reduction assay against SARS-CoV-2 SA variant B.1351. Type of experiment: cell-based. Conditions: MOI 0.1, 1 and 10, 50, 75, 100 μM, 24 h.

Take `O=C(O)c1ccc(F)c(F)c1Nc1ccc(I)cc1Cl` [ATR-002, 2-(2-chloro-4-iodophenylamino)-N-3,4-difluoro benzoic acid]: the “virus yield (RT-qPCR)” value is on record as “reduction of virus yield” (Calu-3) and “reduction of virus yield” (Vero).
